The record followed here is US10487088B2, “Tricyclic compound serving as immunomodulator” (Chia Tai Tianqing Pharmaceutical Group Co., Ltd., priority 2016, dated 2019).

A value given as a limit tells only on which side of the number the result lay.

For assay [1], the target named is T1, recombinant human IDO1 enzyme (Homo sapiens, UniProt P14902).
T1 construct: purchased NTRC NTRC-hlDO-10K
Kind of assay: In vitro hIDO1 enzyme activity test (NFK Green fluorescence). It counts as biochemical. The settings on record: recombinant human IDO1, L-tryptophan substrate, pH 6.5. Here is the method: The change of NFK production was detected by using the NFK Green™ fluorescent molecule, which is the metabolite of the IDO1 enzyme, and the IC50 value of the compound was used as an index, to evaluate the inhibitory effect of the compound on the recombinant human IDO1 enzyme.
IDO1 Enzyme Activity Assay Kit, NTRC # NTRC-hlDO-10K;
The compound was diluted to 1 mM in DMSO, and then diluted 3-fold in duplicate wells, with 10 gradients. 48 μL of 50 mM phosphate buffer (pH 6.5) was transferred to the compound plate via Bravo automated liquid handling platform. 2 μL of the diluted solution of the compound in DMSO was then added and mixed, followed by transferring 10 μL therein to an enzyme reaction plate.
The IDO1 enzyme was diluted to 20 nM in the reaction buffer (50 mM phosphate buffer pH 6.5, 0.1% Tween-20, 2% glycerol, 20 mM ascorbic acid, 20 μg/mL catalase and 20 μM methylene blue), and 20 μL of the solution was transferred to an enzyme reaction plate and incubated at 23° C. for 30 min. The reaction was started by adding 10 μL of 400 μM L-type tryptophan substrate and incubated at 23° C. for 90 min. 10 μL of NFK Green™ fluorescent dye was added, and the plate was sealed with the sealing film, incubated at 37° C. for 4 h, and then read on Envision Multimode Plate Reader (Ex 400 nm/Em 510 nm).
The control wells with the IDO1 enzyme but no compound was set as 0% inhibition, and the control wells without the IDO1 enzyme was set as 100% inhibition, and the IC50 value of the compound was calculated by analyzing the data with XLFit 5.

In assay [2] the target is T2, IDO1 enzyme in Hela cells (Homo sapiens, UniProt P14902).
T2 construct: recombinant human γ-interferon was added at a final concentration of 100 ng/mL to induce IDO1 expression; endogenous in cells; host or cells: Hela cells, induced with recombinant human γ-interferon
Kind of assay: hIDO1 cytological activity assay (kynurenine in Hela cells by LC-MS). It counts as cell-based. As to conditions: Hela cells induced with 100 ng/mL recombinant human γ-interferon, 20 h, read-out: IC50 hIDO1 Cytoactive. Here is the method: The change of kynurenine in Hela cells was detected by the LC-MS method, and the IC50 value of the compound was used as an index, to evaluate the inhibitory effect of the compound on IDO1 enzyme.
A medium, trypsin and DPBS were pre-heated in a 37° C. water bath. The medium for cell culture was sucked out and washed with 10 mL of DPBS; then the pre-heated trypsin was added into the culture flask, and the flask was rotated to allow the trypsin to uniformly cover it, and then placed in a 37° C., 5% CO2 incubator and digested for 1-2 min; in each T150, cells were dispersed with 10-15 mL of medium, centrifuged at 800 rpm for 5 min, and then resuspended in 10 mL of medium; 1 mL of cell suspension was pipetted and the cells were counted with Vi-cell; Hela cells were diluted with medium to 5×10^5/mL, 80 μL of the solution was added to a 96-cell plate, and cultured at 37° C. for 5-6 h in a 5% CO2 incubator.
The compound was diluted to 1 mM in DMSO, and then diluted 3-fold in duplicate wells, with 9 gradients. 5 μL of the diluted solution of the compound in DMSO was added to the compound plate containing 95 μL of the medium, and mixed, followed by transferring 10 μL of the mixture to a cell plate.
10 μL of recombinant human γ-interferon was added at a final concentration of 100 ng/mL to induce IDO1 expression. The cells were incubated at 37° C. for 20 h in a 5% CO2 incubator. 4 μL of 5% (w/v) trichloroacetic acid was added thereto, mixed and incubated at 50° C. for 30 min. After centrifugation at 2400 rpm for 10 min, 40 μL of the supernatant was taken and placed in a 96-well V-bottom plate, and then a precipitant was added in the plate. After mixing, the mixture was centrifuged at 4000 rpm for 10 min. 100 μL of the supernatant was transferred to a new 96-well V-bottom plate. The content of kynurenine was determined by LC-MS.
The control wells having γ-interferon but no compound was set as 0% inhibition, and the control wells without Hela cell was set as 100% inhibition, and the IC50 value of the compound was calculated by analyzing the data with XLFit 5.

T2 sequence (P14902 whole entry): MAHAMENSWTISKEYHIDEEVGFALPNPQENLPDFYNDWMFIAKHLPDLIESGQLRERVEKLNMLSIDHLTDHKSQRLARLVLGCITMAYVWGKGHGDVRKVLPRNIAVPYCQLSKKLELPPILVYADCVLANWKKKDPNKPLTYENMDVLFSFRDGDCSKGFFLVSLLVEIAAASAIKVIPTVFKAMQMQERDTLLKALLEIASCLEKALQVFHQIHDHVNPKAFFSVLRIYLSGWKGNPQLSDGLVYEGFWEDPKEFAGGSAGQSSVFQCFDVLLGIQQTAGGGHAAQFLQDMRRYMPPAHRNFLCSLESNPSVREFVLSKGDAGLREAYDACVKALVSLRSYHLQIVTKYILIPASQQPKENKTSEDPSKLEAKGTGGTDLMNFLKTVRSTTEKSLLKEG
T1 sequence (P14902 whole entry): as above

Turning to `c1cc2c(s1)C(CCC1CCCCC1)n1cncc1-2` (single isomer, unassigned) [Example 9, 8-(2-cyclohexyl)-8H-thieno[3,4]pyrrolo[1,5-a]imidazole], the IC50 in assay [1] stood at 55 nM; in assay [2] it was 17.5 nM.
Turning to `c1cc2c(s1)C(CCC1CCCCC1)n1cncc1-2` (single isomer, unassigned) [Example 10, 8-(2-cyclohexyl)-8H-thieno[3,4]pyrrolo[1,5-a]imidazole], the IC50 in assay [1] was over 10000 nM; in assay [2], over 5000 nM.
Taken in the same sequence, the figures for `c1cc2c(s1)C(C1CCCCC1)n1cncc1-2` (single isomer, unassigned) [Example 14, 8-cyclohexyl-8H-thieno[3,4]pyrrolo[1,5-a]imidazole] were 65.9 nM and 220 nM.
Taken in the same sequence, the figures for `c1cc2c(s1)C(CC1CCCCC1)n1cncc1-2` (single isomer, unassigned) [Example 16, 8-(cyclohexylmethyl)-8H-thieno[3,4]pyrrolo[1,5-a]imidazole] were 71 nM and 911 nM.
With `FC1(F)CCC(CCC2c3sccc3-c3cncn32)CC1` (single isomer, unassigned) [Example 22, 8-(2-(4,4-difluorocyclohexyl)ethyl)-8H-thieno[3′,2′:3,4]pyrrolo[1,2-c]imidazole], the IC50 in assay [1] amounted to 23.1 nM; in assay [2] it was 212 nM.
Turning to `O[C@@H](C[C@@H]1c2sccc2-c2cncn21)C1CCOCC1` (single isomer, unassigned) [Example 28], the IC50 in assay [1] was over 10000 nM; in assay [2] it was over 5000 nM.
With `O[C@@H](C[C@H]1c2sccc2-c2cncn21)C1CCOCC1` (single isomer, unassigned) [Example 29], the results for the IC50 in assay [1] and in assay [2] were 51.6 nM and 117 nM, respectively.
Taken in the same sequence, the figures for `FC1(F)CCC([C@H]2c3sccc3-c3cncn32)CC1` (single isomer, unassigned) [Example 41] were 48 nM and 74.9 nM.
Taken in the same sequence, the figures for `OCC1(C2c3sccc3-c3cncn32)CCCCC1` (single isomer, unassigned) [Example 42, [1-(8H-thieno[3,4]pyrrolo[1,5-a]imidazol-8-yl)cyclohexyl]methanol] were 253 nM and 779 nM.
Taken in the same sequence, the figures for `OC1CCCCC1C1c2sccc2-c2cncn21` (single isomer, unassigned) [Example 53, 2-(8H-thieno[3,4]pyrrolo[1,5-a]imidazol-8-yl)cyclohexanol] were 161 nM and 377 nM.
Regarding `FC1(F)[C@@H]2C[C@@H](C3c4sccc4-c4cncn43)C[C@@H]21` (single isomer, unassigned) [Example 62, 8-[6,6-difluoro-3-bicyclo[3.1.0]cyclohexyl]-8H-thieno[3,4]pyrrolo[1,5-a]imidazole (trans)], the IC50 in assay [1] turned out to be 199 nM; in assay [2], 446 nM.
Consider `O[C@@H]1CCCC1[C@H]1c2sccc2-c2cncn21` (single isomer, unassigned) [Example 107, (trans)-2-(8H-thieno[3′,2′:3,4]pyrrolo[1,2-c]imidazol-8-yl)cyclopentanol], for which the 50% inhibitory concentration (IC50) in assay [1] is 183 nM.
Still for that read-out and setting: then `O[C@@H]1CCCC1[C@H]1c2sccc2-c2cncn21` (single isomer, unassigned) [Example 108, (trans)-2-(8H-thieno[3′,2′:3,4]pyrrolo[1,2-c]imidazol-8-yl)cyclopentanol], with over 10000 nM; and `O[C@@H]1CCCC1[C@H]1c2sccc2-c2cncn21` (single isomer, unassigned) [Example 109, (trans)-2-(8H-thieno[3′,2′:3,4]pyrrolo[1,2-c]imidazol-8-yl)cyclopentanol], with over 10000 nM.
The same measure, in the same setting: then `O[C@@H]1CCCC1[C@H]1c2sccc2-c2cncn21` (single isomer, unassigned) [Example 110, (trans)-2-(8H-thieno[3′,2′:3,4]pyrrolo[1,2-c]imidazol-8-yl)cyclopentanol], with over 10000 nM; and `OC1CCC(C2c3sccc3-c3cncn32)CC1` (single isomer, unassigned) [Example 115, 4-(8H-thieno[3,4]pyrrolo[1,5-a]imidazol-8-yl)-cyclohexanol], with 3510 nM.
On the same count and under the same terms, then `OC1CCC(C2c3sccc3-c3cncn32)CC1` (single isomer, unassigned) [Example 116, 4-(8H-thieno[3,4]pyrrolo[1,5-a]imidazol-8-yl)-cyclohexanol], with over 10000 nM; and `OC1CCC(C2c3sccc3-c3cncn32)CC1` (single isomer, unassigned) [Example 118, 4-(8H-thieno[3,4]pyrrolo[1,5-a]imidazol-8-yl)-cyclohexanol], with 7290 nM; and `CC(C)(C(O)C1CCCCC1)C1c2sccc2-c2cncn21` (single isomer, unassigned) [Example 120, 1-cyclohexyl-2-methyl-2-(8H-thieno[3,4]pyrrolo[1,5-a]imidazol-8-yl)-propan-1-ol], with over 10000 nM.
`CC(C)(C(O)C1CCCCC1)C1c2sccc2-c2cncn21` (single isomer, unassigned) [Example 121, 1-cyclohexyl-2-methyl-2-(8H-thieno[3,4]pyrrolo[1,5-a]imidazol-8-yl)-propan-1-ol]: in assay [1], the IC50 came to 585 nM.
Consider `CC(C)(C(O)C1CCCCC1)C1c2sccc2-c2cncn21` (single isomer, unassigned) [Example 122, 1-cyclohexyl-2-methyl-2-(8H-thieno[3,4]pyrrolo[1,5-a]imidazol-8-yl)-propan-1-ol], for which the IC50 in assay [1] was over 10000 nM.
`OCCC1c2sccc2-c2cncn21` (stereo not drawn) [Example 11, 2-(8H-thieno[3′,2′:3,4]pyrrolo[1,2-c]imidazol-8-yl)ethanol]: the IC50 in assay [1] is 5980 nM.
Same read-out and setting: then `OC(CC1c2cscc2-c2cncn21)C1CCCCC1` (stereo not drawn) [Example 12, 1-cyclohexyl-2-(5H-thieno[3′,4′:3,4]pyrrolo[1,2-c]imidazol-5-yl)ethanol], with 106 nM; and `CC(C)(C)C1c2sccc2-c2cncn21` (stereo not drawn) [Example 23, 8-(tert-butyl)-8H-thieno[3′,2′:3,4]pyrrolo[1,2-c]imidazole], with 5260 nM; and `CC(C)CC1c2sccc2-c2cncn21` (stereo not drawn) [Example 24, 8-isobutyl-8H-thieno[3′,2′:3,4]pyrrolo[1,2-c]imidazole], with 1030 nM.
Still for that read-out and setting: then `CC(C)C1c2sccc2-c2cncn21` (stereo not drawn) [Example 25, 8-isopropyl-8H-thieno[3,4]pyrrolo[1,5-a]imidazole], with 8120 nM; and `c1cc2c(s1)C(CCN1CCOCC1)n1cncc1-2` (stereo not drawn) [Example 30], with over 10000 nM.
On the same count and under the same terms, then `c1cc2c(s1)C(CCN1CCCCC1)n1cncc1-2` (stereo not drawn) [Example 31, 8-(2-(piperidin-1-yl)ethyl)-8H-thieno[3′,2′:3,4]pyrrolo[1,2-c]imidazole], with over 10000 nM; and `c1cc2c(s1)C(C1CCC1)n1cncc1-2` (stereo not drawn) [Example 32, 8-cyclobutyl-8-hydro-thieno[3,4]pyrrolo[1,5-a]imidazole], with 807 nM.
On to `O[C@@H](C[C@@H]1c2sccc2-c2cncn21)C1CCC(F)(F)CC1` [Example 47, (1S)-1-(4,4-difluorocyclohexyl)-2-((R)-8H-thieno[3,4]pyrrolo[1,5-a]imidazol-8-yl)ethanol], for which, in assay [1], the IC50 came to 1680 nM.
Consider `c1ccc2c(C3CCC(C4c5sccc5-c5nccn54)CC3)ccnc2c1` (stereo not drawn) [Example 96, 5-(4-(quinolin-4-yl)cyclohexyl)-5H-thieno[3′,2′:3,4]pyrrolo[1,2-a]imidazole], for which the IC50 in assay [1] is over 10000 nM.
